# Test results reported in PubChem BioAssay AID1963986 (Molecular Pharmacology Branch, DTP, NCI, 2024).
# Tested on: 171881-019-R-J1-PDC tumor spheroid viability
# Test: Anticancer human tumor 171881-019-R-J1-PDC patient-derived invasive breast carcinoma cell line growth inhibition [PI3K]
# Conditions: spheroids with HUVEC and MSC; for IC50: curve of first compound; for viability, T/C: stronger effect = lower value
# Method in brief: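 Tumor cells grown as multi-cell spheroids with HUVEC endothelial cells and MSC fibroblast-like stroma were treated with targeted agents combined with inavolisib, alpelisib, duvelisib or copanlisib. Doses fell in half-log steps from near clinical Cmax, else from 10 microM. Viability was measured.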
# [1] = second compound 0.00316 µM, first compound 0.0316 µM
# [2] = second compound 0.00316 µM, first compound 0.1 µM
# [3] = second compound 0.00316 µM, first compound 0.316 µM
# [4] = second compound 0.00316 µM, first compound 1 µM
# [5] = second compound 0.00316 µM, first compound 3.16 µM
# [6] = second compound 0.00316 µM, first compound 10 µM
# [7] = second compound 0.01 µM, first compound 0.0316 µM
# [8] = second compound 0.01 µM, first compound 0.1 µM
# [9] = second compound 0.01 µM, first compound 0.316 µM
# [10] = second compound 0.01 µM, first compound 1 µM
# [11] = second compound 0.01 µM, first compound 3.16 µM
# [12] = second compound 0.01 µM, first compound 10 µM
# [13] = second compound 0.0316 µM, first compound 0.0316 µM
# [14] = second compound 0.0316 µM, first compound 0.1 µM
# [15] = second compound 0.0316 µM, first compound 0.316 µM
# [16] = second compound 0.0316 µM, first compound 1 µM
# [17] = second compound 0.0316 µM, first compound 3.16 µM
# [18] = second compound 0.0316 µM, first compound 10 µM
# [19] = second compound 0.1 µM, first compound 0.0316 µM
# [20] = second compound 0.1 µM, first compound 0.1 µM
# [21] = second compound 0.1 µM, first compound 0.316 µM
# [22] = second compound 0.1 µM, first compound 1 µM
# [23] = second compound 0.1 µM, first compound 3.16 µM
# [24] = second compound 0.1 µM, first compound 10 µM
# [25] = second compound 0.316 µM, first compound 0.0316 µM
# [26] = second compound 0.316 µM, first compound 0.1 µM
# [27] = second compound 0.316 µM, first compound 0.316 µM
# [28] = second compound 0.316 µM, first compound 1 µM
# [29] = second compound 0.316 µM, first compound 3.16 µM
# [30] = second compound 0.316 µM, first compound 10 µM
# [31] = second compound 1 µM, first compound 0.0316 µM
# [32] = second compound 1 µM, first compound 0.1 µM
# [33] = second compound 1 µM, first compound 0.316 µM
# [34] = second compound 1 µM, first compound 1 µM
# [35] = second compound 1 µM, first compound 3.16 µM
# [36] = second compound 1 µM, first compound 10 µM
# 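Further: spheroids exposed to compound for 7 days before viability read.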
# 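Wherever viability, T/C is given: 100% = DMSO vehicle-treated spheroids.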
compound,measurement,setting,value
C#Cc1c(F)ccc2cc(O)cc(-c3ncc4c(N5CC6CCC(C5)N6)nc(OCC56CCCN5CC(F)C6)nc4c3F)c12 (centres undefined) + CC(Nc1ccc2c(c1)OCCn1cc(N3C(=O)OCC3C(F)F)nc1-2)C(N)=O,IC50,second compound 0.00316 µM,0.187 µM
same,IC50,second compound 0.01 µM,0.0996 µM
same,IC50,second compound 0.0316 µM,< 0.0316 µM
same,IC50,second compound 0.1 µM,< 0.0316 µM
same,IC50,second compound 0.316 µM,< 0.0316 µM
same,IC50,second compound 1 µM,< 0.0316 µM
same,"viability, T/C",[1],72.4%
same,"viability, T/C",[2],57.1%
same,"viability, T/C",[3],44.4%
same,"viability, T/C",[4],32.8%
same,"viability, T/C",[5],28.8%
same,"viability, T/C",[6],22%
same,"viability, T/C",[7],65%
same,"viability, T/C",[8],51.7%
same,"viability, T/C",[9],32%
same,"viability, T/C",[10],27.5%
same,"viability, T/C",[11],22.2%
same,"viability, T/C",[12],17.1%
same,"viability, T/C",[13],42.7%
same,"viability, T/C",[14],37.2%
same,"viability, T/C",[15],26.4%
same,"viability, T/C",[16],18.3%
same,"viability, T/C",[17],14.9%
same,"viability, T/C",[18],12.7%
same,"viability, T/C",[19],31.1%
same,"viability, T/C",[20],23.6%
same,"viability, T/C",[21],15.6%
same,"viability, T/C",[22],11.9%
same,"viability, T/C",[23],9.09%
same,"viability, T/C",[24],8.33%
same,"viability, T/C",[25],21.1%
same,"viability, T/C",[26],15.7%
same,"viability, T/C",[27],10.4%
same,"viability, T/C",[28],7.74%
same,"viability, T/C",[29],6.88%
same,"viability, T/C",[30],6.22%
same,"viability, T/C",[31],17.2%
same,"viability, T/C",[32],12.3%
same,"viability, T/C",[33],7.9%
same,"viability, T/C",[34],7.17%
same,"viability, T/C",[35],5.55%
same,"viability, T/C",[36],4.36%
CC1(C)CCC(Nc2ncc(C(F)(F)F)c(-c3c[nH]c4c(P(C)(C)=O)c(C#N)ccc34)n2)CN1 (centres undefined) + CC(Nc1ccc2c(c1)OCCn1cc(N3C(=O)OCC3C(F)F)nc1-2)C(N)=O,IC50,second compound 0.00316 µM,5.04 µM
same,IC50,second compound 0.01 µM,4.48 µM
same,IC50,second compound 0.0316 µM,1.66 µM
same,IC50,second compound 0.1 µM,< 0.0316 µM
same,IC50,second compound 0.316 µM,< 0.0316 µM
same,IC50,second compound 1 µM,< 0.0316 µM
same,"viability, T/C",[1],68%
same,"viability, T/C",[2],70.8%
same,"viability, T/C",[3],74.5%
same,"viability, T/C",[4],72.6%
same,"viability, T/C",[5],81.4%
same,"viability, T/C",[6],15.6%
same,"viability, T/C",[7],60.8%
same,"viability, T/C",[8],65.4%
same,"viability, T/C",[9],65.8%
same,"viability, T/C",[10],73.6%
same,"viability, T/C",[11],66.9%
same,"viability, T/C",[12],12%
same,"viability, T/C",[13],44.7%
same,"viability, T/C",[14],49.7%
same,"viability, T/C",[15],54.6%
same,"viability, T/C",[16],57.4%
same,"viability, T/C",[17],47.4%
same,"viability, T/C",[18],5.82%
same,"viability, T/C",[19],34.1%
same,"viability, T/C",[20],37%
same,"viability, T/C",[21],39.9%
same,"viability, T/C",[22],40.4%
same,"viability, T/C",[23],33.3%
same,"viability, T/C",[24],2.6%
same,"viability, T/C",[25],27.7%
same,"viability, T/C",[26],26.8%
same,"viability, T/C",[27],30.2%
same,"viability, T/C",[28],29.4%
same,"viability, T/C",[29],24.4%
same,"viability, T/C",[30],1.37%
same,"viability, T/C",[31],21.3%
same,"viability, T/C",[32],22.5%
same,"viability, T/C",[33],23.6%
same,"viability, T/C",[34],22.9%
same,"viability, T/C",[35],16.8%
same,"viability, T/C",[36],1.29%
